# Source: US20030176454A1, “N-coating heterocyclic compounds” (priority 2000, published 2003)
row,SMILES,melting point [°C]
1,"CS(=O)(=O)O.N=C(Nc1cccc(Nc2noc3ccccc23)c1)c1ccccc1 [Example 25, N-[3-(benzo[d]isoxazol-3-ylamino)phenyl]benzamidine methanesulfonate]",113 to 115
2,I.N=C(Nc1cccc(Nc2nnc3c4c(cccc24)-c2ccccc2-3)c1)c1ccccc1,183 to 186
3,"Cn1cncc1-c1cccc(Nc2nccc3ccccc23)c1 [Example 35, [3-(1-methyl-imidazol-5-yl)-phenyl]-(isoquinolin-1-yl)-amine]",208 to 209
4,"c1ccc2c(N[C@H]3CC[C@H](Nc4nccc5ccccc45)CC3)nccc2c1 [Example 38, N,N′-Di(isoquinolin-1-yl)-transcyclohexane-1,4-diamine]",278 to 280
5,"c1ccc(Cc2nnc(Nc3cccc(-n4ccnc4)c3)c3ccccc23)cc1 [Example 36, (4-Benzyl-phthalazin-1-yl)-(3-imidazol-1-yl-phenyl)-amine]",214 to 217
6,"c1ccc2c(NCCCCNc3nccc4ccccc34)nccc2c1 [Example 37, N,N′-Di(isoquinolin-1-yl)-butane-1,4-diamine]",189 to 192
7,"Cn1cncc1-c1cccc(Nc2ccc3ccccc3n2)c1 [Example 34, [3-(1-methyl-imidazol-5-yl)-phenyl]-(quinolin-2-yl)-amine]",60 to 65

# Next, values leading:
row,melting point [°C],SMILES
1,135 to 137,"c1cc(Nc2nncc3ccccc23)cc(-n2ccnc2)c1 [Example 45, [3-(Imidazol-1-yl)-phenyl]-(phthalazin-1-yl)-amine]"
2,223 to 226,"c1cc(Nc2nnc3c4c(cccc24)-c2ccccc2-3)cc(-n2ccnc2)c1 [Example 39, (Indeno[1,2,3-de]phthalazin-3-yl)-[3-(imidazol-1-yl)-phenyl]-amine]"
3,164 to 167,"c1cc(Nc2nccc3ccccc23)cc(-n2ccnc2)c1 [Example 44, [3-(Imidazol-1-yl)-phenyl]-(isoquinolin-1-yl)-amine]"
4,152 to 156,"c1cc(Nc2ccc(-n3cccc3)cn2)cc(-n2ccnc2)c1 [Example 87, N-[3-(imidazol-1-yl)phenyl]-N-[5-(pyrrol-1-yl)pyridin-2-yl]-amine]"
5,235 to 237,"Cc1ncc(-c2cccc(Nc3ncnc4c3CCOc3ccccc3-4)c2)n1C [Example 86, N-[3-(1,2-dimethyl-1H-imidazol-5-yl)phenyl]-5,6-dihydro[1]benzoxepino[5,4-d]pyrimidin-4-amine]"
6,149 to 152,"c1cc(CNc2nccc3ccccc23)cc(Nc2nnc3c4c(cccc24)-c2ccccc2-3)c1 [Example 40, (Indeno[1,2,3-de]phthalazin-3-yl)-[3-(isoquinolin-1-ylaminomethyl)-phenyl]-amine]"
7,95 to 105,"c1ccc2c(c1)-c1cccc3c(NCCCCNc4nccc5ccccc45)nnc-2c13 [Example 46, N-(Indeno[1,2,3-de]phthalazin-3-yl)-N′-(isoquinolin-1-yl)-butane-1,4-diamine]"
